Experimental data as given in PubChem BioAssay (NCI).
Where “and” joins values, the source holds several entries; their conditions need not be identical. Equal values may be shown once.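 Method: 48-hour compound exposure of cells in 96-well plates, five concentrations, linear interpolation of endpoints. Here, GI50 denotes the concentration required for 50% inhibition of growth. Definition used: TGI = concentration required for complete inhibition of growth.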

What was measured:
Assay in all cases: DTP human tumour cell line panel, 48 h
ACHN renal = test system: ACHN renal
BT-549 breast = test system: BT-549 breast
HCC-2998 colon = test system: HCC-2998 colon
HCT-116 colon = test system: HCT-116 colon
HOP-92 NSCLC = test system: HOP-92 NSCLC
M14 melanoma = test system: M14 melanoma
NCI-H522 lung = test system: NCI-H522 lung
SF-295 CNS = test system: SF-295 CNS
SR leukemia = test system: SR leukemia
U251 CNS = test system: U251 CNS

CC[C@H](CO)Nc1nc(NCc2ccccc2)c2ncn(C(C)C)c2n1
GI50 (ACHN renal): 16.4 µM
TGI (ACHN renal): > 85.9 µM
TGI (BT-549 breast): 45.3 µM
GI50 (HCC-2998 colon): 24.7 µM
TGI (HCC-2998 colon): > 75.2 µM
GI50 (HCT-116 colon): 11.1 µM
TGI (HCT-116 colon): > 100 µM
GI50 (HOP-92 NSCLC): 28.1 µM
TGI (HOP-92 NSCLC): > 90.7 µM
GI50 (M14 melanoma): 31.6 µM
TGI (M14 melanoma): > 100 µM
TGI (NCI-H522 lung): 57.8 µM
GI50 (SF-295 CNS): 21.8 µM
TGI (SF-295 CNS): > 79.6 µM
TGI (SR leukemia): > 79.8 µM
GI50 (U251 CNS): 40 µM
TGI (U251 CNS): > 100 µM

CN(C)C(=O)c1cnc2oc3ccc(O)cc3c2c1-c1ccccc1
GI50 (ACHN renal): > 25 µM
TGI (ACHN renal): > 25 µM
GI50 (BT-549 breast): 6.2 µM
TGI (BT-549 breast): > 25 µM
GI50 (HCT-116 colon): > 25 µM
TGI (HCT-116 colon): > 25 µM
GI50 (HOP-92 NSCLC): > 25 µM
TGI (HOP-92 NSCLC): > 25 µM
GI50 (M14 melanoma): > 25 µM
TGI (M14 melanoma): > 25 µM
GI50 (NCI-H522 lung): > 25 µM
TGI (NCI-H522 lung): > 25 µM
GI50 (SF-295 CNS): > 25 µM
TGI (SF-295 CNS): > 25 µM
GI50 (SR leukemia): 3.78 µM
TGI (SR leukemia): > 25 µM
GI50 (U251 CNS): > 25 µM
TGI (U251 CNS): > 25 µM

COc1ccc(CC(=O)c2ccc(O)cc2O)cc1
GI50 (ACHN renal): > 100 µM
TGI (ACHN renal): > 100 µM
GI50 (BT-549 breast): 66.2 µM
TGI (BT-549 breast): > 100 µM
GI50 (HCC-2998 colon): > 100 µM
TGI (HCC-2998 colon): > 100 µM
GI50 (HCT-116 colon): > 100 µM
TGI (HCT-116 colon): > 100 µM
GI50 (HOP-92 NSCLC): 12.3 µM
TGI (HOP-92 NSCLC): 62.1 µM
GI50 (M14 melanoma): > 100 µM
TGI (M14 melanoma): > 100 µM
GI50 (NCI-H522 lung): 60.8 µM
TGI (NCI-H522 lung): > 100 µM
GI50 (SF-295 CNS): 46.2 µM
TGI (SF-295 CNS): > 100 µM
GI50 (SR leukemia): > 100 µM
TGI (SR leukemia): > 100 µM
GI50 (U251 CNS): > 100 µM
TGI (U251 CNS): > 100 µM

C=C1c2ccoc2C[C@H]2[C@H]1CC[C@@]1(O)[C@@](C)(C(=O)OC)CCC[C@]21C
GI50 (ACHN renal): 16 µM
TGI (ACHN renal): 40.9 µM
GI50 (BT-549 breast): 26 µM
TGI (BT-549 breast): 60.3 µM
GI50 (HCC-2998 colon): 29.4 µM
TGI (HCC-2998 colon): 71 µM
GI50 (HCT-116 colon): 15.7 µM
TGI (HCT-116 colon): 31.2 µM
GI50 (HOP-92 NSCLC): 14.6 µM
TGI (HOP-92 NSCLC): 57.1 µM
GI50 (M14 melanoma): 29.3 µM
TGI (M14 melanoma): 82.6 µM
GI50 (NCI-H522 lung): 17.5 µM
TGI (NCI-H522 lung): 54 µM
GI50 (SF-295 CNS): 27.9 µM
TGI (SF-295 CNS): 81.9 µM
GI50 (SR leukemia): 13.1 µM
TGI (SR leukemia): 31.6 µM
GI50 (U251 CNS): 42.4 µM
TGI (U251 CNS): > 100 µM

COC(=N)c1c(N)[n+]([O-])c2ccc(F)cc2[n+]1[O-]
GI50 (ACHN renal): > 100 µM
TGI (ACHN renal): > 100 µM
GI50 (BT-549 breast): > 100 µM
TGI (BT-549 breast): > 100 µM
GI50 (HCC-2998 colon): > 100 µM
TGI (HCC-2998 colon): > 100 µM
GI50 (HCT-116 colon): > 100 µM
TGI (HCT-116 colon): > 100 µM
GI50 (HOP-92 NSCLC): 78.8 µM
TGI (HOP-92 NSCLC): > 100 µM
GI50 (M14 melanoma): > 100 µM
TGI (M14 melanoma): > 100 µM
GI50 (NCI-H522 lung): 54.7 µM
TGI (NCI-H522 lung): > 100 µM
GI50 (SF-295 CNS): > 100 µM
TGI (SF-295 CNS): > 100 µM
GI50 (SR leukemia): 47.9 µM
TGI (SR leukemia): > 100 µM
GI50 (U251 CNS): > 100 µM
TGI (U251 CNS): > 100 µM

Nc1ccccc1C#C/C=C\C#Cc1cccc(O)c1
GI50 (ACHN renal): 2.64 µM
TGI (ACHN renal): 18.8 µM
GI50 (BT-549 breast): 7.12 µM
TGI (BT-549 breast): 25.8 µM
GI50 (HCC-2998 colon): 3.98 µM
TGI (HCC-2998 colon): 9.08 µM
GI50 (HCT-116 colon): 2.73 µM
TGI (HCT-116 colon): 12.2 µM
GI50 (HOP-92 NSCLC): 11.9 µM
TGI (HOP-92 NSCLC): > 51.2 µM
GI50 (M14 melanoma): 1.3 µM
TGI (M14 melanoma): 5.65 µM
GI50 (NCI-H522 lung): 1.09 µM
TGI (NCI-H522 lung): 11.5 µM
GI50 (SF-295 CNS): 2.19 µM
TGI (SF-295 CNS): 8.29 µM
GI50 (SR leukemia): 1.55 µM
TGI (SR leukemia): 6.13 µM
GI50 (U251 CNS): 4.09 µM
TGI (U251 CNS): 17.1 µM

N#Cc1nc2c(S(=O)(=O)c3ccc(Cl)cc3)c(N)n(CCCN3CCOCC3)c2nc1C#N
GI50 (ACHN renal): 3.26 µM
TGI (ACHN renal): 15.3 µM
GI50 (BT-549 breast): 5.75 µM
TGI (BT-549 breast): 42 µM
GI50 (HCC-2998 colon): 18 µM
TGI (HCC-2998 colon): 33.7 µM
GI50 (HCT-116 colon): 3.11 µM
TGI (HCT-116 colon): 13.6 µM
GI50 (HOP-92 NSCLC): 2.72 µM
TGI (HOP-92 NSCLC): 30.2 µM
GI50 (SF-295 CNS): 17.6 µM
TGI (SF-295 CNS): 40.7 µM
GI50 (SR leukemia): 3.58 µM
TGI (SR leukemia): 31 µM
GI50 (U251 CNS): 10.8 µM
TGI (U251 CNS): 26.7 µM

O=C1c2ccc3c4c(ccc(c24)C(=O)N1CCCNCc1ccccc1Cl)C(=O)N(CCCNCc1ccccc1Cl)C3=O
GI50 (ACHN renal): 0.206 µM
TGI (ACHN renal): 0.859 µM
GI50 (BT-549 breast): 0.87 µM
TGI (BT-549 breast): 1.8 µM
GI50 (HCC-2998 colon): 0.191 µM
TGI (HCC-2998 colon): 0.651 µM
GI50 (HCT-116 colon): 0.126 µM
TGI (HCT-116 colon): 0.344 µM
GI50 (HOP-92 NSCLC): 0.728 µM
TGI (HOP-92 NSCLC): 2.37 µM
GI50 (M14 melanoma): 0.2 µM
TGI (M14 melanoma): 0.685 µM
GI50 (NCI-H522 lung): 0.293 µM
TGI (NCI-H522 lung): 0.974 µM
GI50 (SF-295 CNS): 0.494 µM
TGI (SF-295 CNS): 1.22 µM
GI50 (SR leukemia): 0.151 µM
TGI (SR leukemia): 6.68 µM
GI50 (U251 CNS): 0.218 µM
TGI (U251 CNS): 0.91 µM

Cc1cnc(CNC(=O)c2c(=O)c3ccc(N4CCCN(C)CC4)nc3n3c2sc2ccccc23)cn1
GI50 (ACHN renal): 0.305 µM
TGI (ACHN renal): 14.9 µM
GI50 (BT-549 breast): 12.6 µM
TGI (BT-549 breast): 28.4 µM
GI50 (HCC-2998 colon): 2.72 µM
TGI (HCC-2998 colon): 21.3 µM
GI50 (HCT-116 colon): 0.806 µM
TGI (HCT-116 colon): 2.76 µM
GI50 (HOP-92 NSCLC): 16.4 µM
TGI (HOP-92 NSCLC): 32.2 µM
GI50 (M14 melanoma): 6.49 µM
TGI (M14 melanoma): 23 µM
GI50 (NCI-H522 lung): 5.94 µM
TGI (NCI-H522 lung): 27.2 µM
GI50 (SF-295 CNS): 1.32 µM
TGI (SF-295 CNS): 18.6 µM
GI50 (SR leukemia): 0.0311 µM
TGI (SR leukemia): > 34.3 µM
GI50 (U251 CNS): 3 µM
TGI (U251 CNS): 7.37 µM

O=[N+]([O-])c1ccc(N=Nc2ccc(O)c3ccccc23)cc1
GI50 (ACHN renal): 3.13 µM
TGI (ACHN renal): > 100 µM
GI50 (BT-549 breast): 5.07 µM
TGI (BT-549 breast): 46.7 µM
GI50 (HCC-2998 colon): 10.3 µM
TGI (HCC-2998 colon): > 100 µM
GI50 (HCT-116 colon): 2.02 µM
TGI (HCT-116 colon): 13.8 µM
GI50 (HOP-92 NSCLC): 0.281 µM
TGI (HOP-92 NSCLC): 2.94 µM
GI50 (NCI-H522 lung): 2.23 µM
TGI (NCI-H522 lung): 8.18 µM
GI50 (SF-295 CNS): 9.89 µM
TGI (SF-295 CNS): > 100 µM
GI50 (SR leukemia): 2.99 µM
TGI (SR leukemia): 23.4 µM
GI50 (U251 CNS): 3.12 µM
TGI (U251 CNS): 25.8 µM

O=[N+]([O-])c1ccc(N2CCC(CCCC3CCN(c4ccc([N+](=O)[O-])cc4[N+](=O)[O-])CC3)CC2)c([N+](=O)[O-])c1
TGI (ACHN renal): 35.4 µM
TGI (BT-549 breast): 71.8 µM
TGI (HCT-116 colon): > 100 µM
TGI (HOP-92 NSCLC): 26.4 µM
TGI (M14 melanoma): 26.7 µM
TGI (NCI-H522 lung): 42.8 µM
TGI (SF-295 CNS): 32.3 µM
TGI (SR leukemia): 74.7 µM
TGI (U251 CNS): 29.2 µM

O=c1c(O)c(-c2ccc(O)c(O)c2)oc2cc(O)cc(O)c12
GI50 (ACHN renal): 15.6 µM
TGI (ACHN renal): > 100 µM
GI50 (BT-549 breast): 13.3 µM
TGI (BT-549 breast): 77.7 µM
GI50 (HCC-2998 colon): 16 µM
TGI (HCC-2998 colon): 51 µM and > 100 µM
GI50 (HCT-116 colon): 16.9 µM
TGI (HCT-116 colon): > 100 µM
GI50 (HOP-92 NSCLC): 6.16 µM
TGI (HOP-92 NSCLC): > 74.8 µM
GI50 (M14 melanoma): 17.3 µM
TGI (M14 melanoma): > 100 µM
GI50 (NCI-H522 lung): 5.54 µM
TGI (NCI-H522 lung): > 100 µM
GI50 (SF-295 CNS): 23.1 µM
TGI (SF-295 CNS): > 100 µM
GI50 (SR leukemia): 3.57 µM
TGI (SR leukemia): > 100 µM
GI50 (U251 CNS): 8.68 µM
TGI (U251 CNS): > 100 µM

COc1ccc(/C=C(\C(=O)NCc2cccnc2)S(=O)(=O)c2ccccc2)cc1OC
GI50 (ACHN renal): 3.16 µM
TGI (ACHN renal): 11.5 µM
GI50 (BT-549 breast): 2.45 µM
TGI (BT-549 breast): 6.69 µM
GI50 (HCC-2998 colon): 3.91 µM
TGI (HCC-2998 colon): 15.1 µM
GI50 (HCT-116 colon): 2.11 µM
TGI (HCT-116 colon): 6.12 µM
GI50 (HOP-92 NSCLC): 2.59 µM
TGI (HOP-92 NSCLC): 7.33 µM
GI50 (M14 melanoma): 2.48 µM
TGI (M14 melanoma): 8.59 µM
GI50 (NCI-H522 lung): 1.7 µM
TGI (NCI-H522 lung): 4.61 µM
GI50 (SF-295 CNS): 2.95 µM
TGI (SF-295 CNS): 9.11 µM
GI50 (SR leukemia): 3.3 µM
TGI (SR leukemia): > 100 µM
GI50 (U251 CNS): 3.09 µM
TGI (U251 CNS): 14 µM
